Molecular target: T1, CHK1 (Homo sapiens, UniProt O14757)
T1 construct: His; purchased Invitrogen
T1 sequence (O14757 1-476): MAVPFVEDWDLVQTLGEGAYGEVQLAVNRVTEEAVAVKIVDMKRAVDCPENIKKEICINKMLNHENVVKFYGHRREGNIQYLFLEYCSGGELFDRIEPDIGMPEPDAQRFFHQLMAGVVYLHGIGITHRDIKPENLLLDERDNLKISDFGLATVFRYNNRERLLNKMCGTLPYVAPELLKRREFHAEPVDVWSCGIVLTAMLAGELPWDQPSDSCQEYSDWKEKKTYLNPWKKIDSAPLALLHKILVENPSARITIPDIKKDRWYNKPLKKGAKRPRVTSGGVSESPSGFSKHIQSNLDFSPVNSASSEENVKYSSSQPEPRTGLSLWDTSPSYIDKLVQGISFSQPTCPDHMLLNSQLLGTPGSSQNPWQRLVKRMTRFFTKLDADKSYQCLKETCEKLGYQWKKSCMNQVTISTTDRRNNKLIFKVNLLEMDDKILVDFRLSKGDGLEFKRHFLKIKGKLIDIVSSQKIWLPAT
Assay: CHK1 Enzyme Assay (phosphorylation of Chktide peptide, 33P-ATP filter assay)
Format: biochemical
Settings: 12.5 nM His-CHK1, 0.01 mM ATP, 40 minutes at 30° C.; read-out: CHK1 Enzyme Activity (IC50 range)
How it was run: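 Filter-binding radiometric readout of 33P incorporation into Chktide (14.8 μM), after a 40 min, 30 °C reaction at pH 7.5 (50 mM Hepes-NaOH, 0.1 mg/mL BSA). The reaction contained 12.5 nM His-tagged CHK1, inhibitor and 0.01 mM cold ATP plus labelled ATP.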

| Structure (SMILES) | IC50 |
| --- | --- |
| C[C@@H]1CN(Cc2cccc3[nH]c(-c4cc(NC(=O)c5cnn(Cc6ccccc6)c5)c[nH]c4=O)cc23)C[C@H](C)O1 [Example 109, 1-Benzyl-1H-pyrazole-4-carboxylic acid {5-[4-(cis-2,6-dimethyl-morpholin-4-ylmethyl)-1H-indol-2-yl]-6-oxo-1,6-dihydro-pyridin-3-yl}-amide] | < 100 nM |
| C[C@H](c1ccccc1)n1cc(C(=O)Nc2c[nH]c(=O)c(-c3cc4ccccc4[nH]3)c2)cn1 [Example 161, 1-((R)-1-Phenyl-ethyl)-1H-pyrazole-4-carboxylic acid [5-(1H-indol-2-yl)-6-oxo-1,6-dihydro-pyridin-3-yl]-amide] | < 100 nM |
| O=C(Nc1c[nH]c(=O)c(-c2cc3ccccc3[nH]2)c1)c1cnn(Cc2ccc(F)nc2)c1 [Example 111, 1-(6-Fluoro-pyridin-3-ylmethyl)-1H-pyrazole-4-carboxylic acid [5-(1H-indol-2-yl)-6-oxo-1,6-dihydro-pyridin-3-yl]-amide] | < 100 nM |
| O=C(Nc1c[nH]c(=O)c(-c2cc3cc(CN4CCC(F)CC4)ccc3[nH]2)c1)c1cnn(Cc2ccc(Cl)cc2)c1 [Example 47, 1-(4-Chloro-benzyl)-1H-pyrazole-4-carboxylic acid {5-[5-(4-fluoro-piperidin-1-ylmethyl)-1H-indol-2-yl]-6-oxo-1,6-dihydro-pyridin-3-yl}-amide] | < 100 nM |
| Cc1ccc(Cn2cc(C(=O)Nc3c[nH]c(=O)c(-c4cc5cc(OCCN(C)C)ccc5[nH]4)c3)cn2)cc1 [Example 132, 1-(4-Methyl-benzyl)-1H-pyrazole-4-carboxylic acid {5-[5-(2-dimethylamino-ethoxy)-1H-indol-2-yl]-6-oxo-1,6-dihydro-pyridin-3-yl}-amide] | < 100 nM |
| Cc1ccc(Cn2cc(C(=O)Nc3c[nH]c(=O)c(-c4cc5cc(CNCCO)ccc5[nH]4)c3)cn2)cc1 [Example 54, 1-(4-Methyl-benzyl)-1H-pyrazole-4-carboxylic acid {5-[5-[(2-hydroxy-ethylamino)-methyl]-1H-indol-2-yl}-6-oxo-1,6-dihydro-pyridin-3-yl]-amide] | < 100 nM |
| CN1CCN(CCCOc2ccc3[nH]c(-c4cc(NC(=O)c5cnn(Cc6ccccc6)c5)c[nH]c4=O)cc3c2)CC1 [Example 140, 1-Benzyl-1H-pyrazole-4-carboxylic acid {5-[5-[3-(4-methyl-piperazin-1-yl)-propoxy]-1H-indol-2-yl}-6-oxo-1,6-dihydro-pyridin-3-yl)-amide] | < 100 nM |
| O=C(Nc1c[nH]c(=O)c(-c2cc3cc(CN4CCCCC4)ccc3[nH]2)c1)c1cnn(Cc2ccc(F)cc2)c1 [Example 80, 1-(4-Fluoro-benzyl)-1H-pyrazole-4-carboxylic acid [6-oxo-5-(5-piperidin-1-ylmethyl-1H-indol-2-yl)-1,6-dihydro-pyridin-3-yl]-amide] | < 100 nM |
| CCc1cccc(Cn2cc(C(=O)Nc3c[nH]c(=O)c(-c4cc5cc(OCCN6CCN(C)CC6)ccc5[nH]4)c3)cn2)c1 [Example 133, 1-(3-Ethyl-benzyl)-1H-pyrazole-4-carboxylic acid (5-{5-[2-(4-methyl-piperazin-1-yl)-ethoxy]-1H-indol-2-yl}-6-oxo-1,6-dihydro-pyridin-3-yl)-amide] | < 100 nM |
| O=C(Nc1c[nH]c(=O)c(-c2cc3cc(CN4CCC(F)(F)CC4)ccc3[nH]2)c1)c1cnn(Cc2ccccc2)c1 [Example 64, 1-Benzyl-1H-pyrazole-4-carboxylic acid {5-[5-(4,4-difluoro-piperidin-1-ylmethyl)-1H-indol-2-yl]-6-oxo-1,6-dihydro-pyridin-3-yl}-amide] | < 100 nM |
| O=C(Nc1c[nH]c(=O)c(-c2cc3ccccc3[nH]2)c1)c1cnn(Cc2ccc(F)c(F)c2)c1 [Example 24, 1-(3,4-Difluoro-benzyl)-1H-pyrazole-4-carboxylic acid [5-(1H-indol-2-yl)-6-oxo-1,6-dihydro-pyridin-3-yl]-amide] | < 100 nM |
| O=C(Nc1cnn(Cc2ccccc2)c1)c1c[nH]c(=O)c(-c2cc3ccccc3[nH]2)c1 [Example 1, 5-(1H-Indol-2-yl)-6-oxo-1,6-dihydro-pyridine-3-carboxylic acid (1-benzyl-1H-pyrazol-4-yl)-amide] | < 100 nM |
| O=C(Nc1c[nH]c(=O)c(-c2cc3cc(CN4CCC(O)CC4)ccc3[nH]2)c1)c1cnn(Cc2ccccc2)c1 [Example 60, 1-Benzyl-1H-pyrazole-4-carboxylic acid {5-[5-(4-hydroxy-piperidin-1-ylmethyl)-1H-indol-2-yl]-6-oxo-1,6-dihydro-pyridin-3-yl}-amide] | < 100 nM |
| O=C(Nc1cnn(Cc2cccnc2)c1)c1c[nH]c(=O)c(-c2cc3ccccc3[nH]2)c1 [Example 35, 5-(1H-Indol-2-yl)-6-oxo-1,6-dihydro-pyridine-3-carboxylic acid (1-pyridin-3-ylmethyl-1H-pyrazol-4-yl)-amide] | < 100 nM |
| CC(c1ccc(F)cc1)n1cc(C(=O)Nc2c[nH]c(=O)c(-c3cc4cc(CN5CCCCC5)ccc4[nH]3)c2)cn1 (stereo not drawn) [Example 88, 1-[1-(4-Fluoro-phenyl)-ethyl]-1H-pyrazole-4-carboxylic acid [6-oxo-5-(5-piperidin-1-ylmethyl-1-H-indol-2-yl)-1,6-dihydro-pyridin-3-yl]-amide] | < 100 nM |
| O=C(Nc1c[nH]c(=O)c(-c2cc3cc(CN4CCCCC4)ccc3[nH]2)c1)c1cnn(CCc2ccc(F)cc2)c1 [Example 95, 1-[2-(4-Fluoro-phenyl)-ethyl]-1H-pyrazole-4-carboxylic acid [6-oxo-5-(5-piperidin-1-ylmethyl-1H-indol-2-yl)-1,6-dihydro-pyridin-3-yl]-amide] | < 100 nM |
| CN(C)[C@@H]1CCN(Cc2ccc3[nH]c(-c4cc(NC(=O)c5cnn(Cc6ccccc6)c5)c[nH]c4=O)cc3c2)C1 [Example 172, 1-Benzyl-1H-pyrazole-4-carboxylic acid {5-[5-((R)-3-dimethylamino-pyrrolidin-1-ylmethyl)-1H-indol-2-yl]-6-oxo-1,6-dihydro-pyridin-3-yl}-amide] | < 100 nM |
| CCN(CCO)Cc1ccc2[nH]c(-c3cc(NC(=O)c4cnn(Cc5ccc(Cl)cc5)c4)c[nH]c3=O)cc2c1 [Example 45, 1-(4-Chloro-benzyl)-1H-pyrazole-4-carboxylic acid [5-(5-{[ethyl-(2-hydroxy-ethyl)-amino]-methyl}-1H-indol-2-yl)-6-oxo-1,6-dihydro-pyridin-3-yl]-amide] | < 100 nM |
| Cc1ccc(Cn2cc(C(=O)Nc3c[nH]c(=O)c(-c4cc5cc(OCCCN6CCN(C)CC6)ccc5[nH]4)c3)cn2)cc1 [Example 124] | < 100 nM |
| O=C(Nc1c[nH]c(=O)c(-c2cc3cc(OCCCN4CCCCC4)ccc3[nH]2)c1)c1cnn(Cc2ccccc2)c1 [Example 143, 1-Benzyl-1H-pyrazole-4-carboxylic acid {6-oxo-5-[5-(3-piperidin-1-yl-propoxy)-1H-indol-2-yl]-1,6-dihydro-pyridin-3-yl}-amide] | < 100 nM |
| CCN(CC)CCOc1ccc2[nH]c(-c3cc(NC(=O)c4cnn(Cc5ccccc5)c4)c[nH]c3=O)cc2c1 [Example 141, 1-Benzyl-1H-pyrazole-4-carboxylic acid {5-[5-(2-diethylamino-ethoxy)-1H-indol-2-yl]-6-oxo-1,6-dihydro-pyridin-3-yl}-amide] | < 100 nM |

From US9604975B2, “Indolyl-pyridone derivatives having checkpoint kinase 1 inhibitory activity” (Vernalis (R&D) Ltd., priority 2009, dated 2017)
